Test results reported in patent US8101777B2, “Ionic liquids based on imidazolium salts incorporating a nitrile functionality” (Ecole Polytechnique Federale de Lausanne, priority 2003, dated 2012).

What was measured:
[1] = Density determined with a picometer; assay type: physicochemical; settings: room temperature (20±1° C.), 1.0 ml of sample, average of three
Procedure: (§1) The 1-methylimidazole and 1,2-dimethylimidazole and chloronitriles are purchased from Fluka, HPF6 and NaBF4 are purchased from Aldrich and are used as received without further purification. The synthesis of the imidazolium salts 1a-5a is performed under an inert atmosphere of dry nitrogen using standard Schlenk techniques in solvents dried using the appropriate reagents and distilled prior to use. All other compounds are made without precautions to exclude air or moisture. IR spectra are recorded on a Perkin-Elmer FT-IR 2000 system. […] Electrospray ionization mass spectra (ESI-MS) are recorded on a ThermoFinnigan LCQ™ Deca XP Plus quadrupole ion trap instrument on sample diluted in methanol.^19 Samples are infused directly into the source at 5 μL min^−1 using a syringe pump and the spray voltage is set at 5 kV and the capillary temperature at 50° C. Samples 2c, 3c, 4a, 4b and 4c are purified by filtration through silica and left under vacuum (ca. 0.1 mm Hg) at 40-50° C. in order to remove traces of salt impurities and volatile components. […] Density is determined with a picometer at room temperature (20±1° C.) on 1.0 ml of sample. The measurements are repeated three times and average values are used. Viscosities are measured with a Brookfield DV-II+ viscometer on 0.50 ml of sample. The temperature of the samples is maintained to 25±1° C. by means of an external temperature controller. The measurements are performed in duplicate.

[2] = Viscosity, Brookfield DV-II+ viscometer; assay type: physicochemical
Procedure: as §1, with “The temperature of the samples is maintained to 25±1° C. by means of an external temperature controller.” left out

[3] = Solubility in common solvents
[4] = Stability of the nitrile-functionalised anion towards catalytic hydrogenation; assay type: physicochemical; settings: 8 mg with RuCl2(PMe3)4 (1 mg) in acetone, H2 40 bar, 35° C., 48 hours
Procedure: The stability of the nitrile-functionalised anion towards catalytic hydrogenation is tested by pressurising a solution of K[CH3CH(BF3)CH2CN] (8 mg) and RuCl2(PMe3)4 (1 mg) in acetone (0.4 ml) with H2 (40 bar) at 35° C.

[5] = 25±1° C., 0.50 ml of sample, duplicate

Compound	Density [1] [g/mL]	Viscosity ([2]; 20° C.) [cp]	Viscosity [2, 5] [mpa · s]	Solubility in common solvents: Acetone [3]	Solubility in common solvents: Et2O [3]	Solubility in common solvents: EtOH [3]	Solubility in common solvents: H2O [3]	Solubility in common solvents: Hexane [3]	Reduction of the nitrile-functionalised anion under catalytic hydrogenation [4]
CCCCn1cc[n+](C)c1.F[B-](F)(F)F [[C4mim][BF4], 1-methyl-3-butylimidazolium tetrafluoroborate, reference compound]	1.14	115.2	115.2	miscible	immiscible	immiscible	miscible		
C=CC[n+]1ccn(C)c1.F[B-](F)(F)F [[CC═Cmim][BF4], 1-methyl-3-allylimidazolium tetrafluoroborate, reference compound]		6110							
Cn1cc[n+](CCCC(=O)O)c1.F[B-](F)(F)F [[C3COOHmim][BF4], 1-methyl-3-proylcarboxylimidazolium tetrafluoroborate, reference compound]		4415							
CCCCn1cc[n+](C)c1.F[P-](F)(F)(F)(F)F [[C4mim][PF6], reference compound]	1.37		320.3	miscible	immiscible	partly	partly	immiscible	
[1-ethyinitrile-3-methylimidazolium]BF4 [[C2CNmim][BF4]]	2.15		65.5	miscible	immiscible	miscible	miscible	immiscible	
[1-butylnitrile-3-methylimidazolium]BF4 [[C4CNmim][BF4]]	1.71		552.9	miscible	immiscible	immiscible	miscible	immiscible	
[1-ethylnitrile-3-methylimidazolium]Cl [[C2CNmim][Cl]]	2.67		2856	immiscible	immiscible	miscible	miscible	immiscible	
CC(CC#N)[B-](F)(F)F.[K+] (stereo not drawn) [K[CH3CH(BF3)CH2CN]]									No reduction was observed
[1-propylnitrile-3-methylimidazolium]BF4 [[C3CNmim][BF4]]	1.87	230.0	230	miscible	immiscible	immiscible	miscible	immiscible	
[1-butylnitrile-3-methylimidazolium]Cl [[C4CNmim][Cl]]	1.61		5222	immiscible	immiscible	miscible	miscible	immiscible	
[1-butylnitrile-3-methylimidazolium]PF6 [[C4CNmim][PF6]]	1.99		2181	miscible	immiscible	immiscible	partly	immiscible	
